This data set can be described thus: Cytotoxicity, AlamarBlue method. Type of data set: cell-based, human. The note with it: human. In a few lines:
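Macrophages derived from healthy-donor PBMC monocytes (5 × 10^4 cells/well) were treated with compound for 72 h at 37 °C. Viability was read by AlamarBlue (10%, overnight, 540/590 nm fluorescence). Cytotoxicity was read as LDH release in serum-free medium, with specific lysis = (treated − spontaneous)/(maximum − spontaneous) × 100.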
Background: Resazurin is reduced to fluorescent resorufin, in cell work by metabolically active cells.

Turning to `CN(C)CCCN1c2ccccc2Sc2ccc(Cl)cc21` [CPZ, chlorpromazine], the CC50 at 3 days was 22.2 µM and the CC90 at 3 days was determined as 37 µM.

The CC50 is the concentration at which the toxic effect on the cells reaches its halfway point.

(Values after PMC5433425 (PeerJ, 2017).)
